Assay results: patent US20110306668A1 (NATIONAL TSING HUA UNIVERSITY, priority 2010, published 2011)

Assays:
Format in all cases: cell-based
[1] = system: A549 (Human type II epithelial cell line); assay: Cytotoxicity by MTT assay, A549 cells; conditions: 48 h, incubation of 2 days, read-out: IC50 values, inhibition of growth of cells
Description: (§1) The cell lines were used in the present invention, including C26 (solid murine colon carcinoma), A549 (Human type II epithelial cell line, from American Type Culture Collection, Manassas, Va.), MCF7 (solid human estrogen receptor positive breast carcinoma) and Tramp C1 (transgenic adenocarcinoma of the mouse prostate).
(§2) 10 μL combinatorial compound was added into the well of microtiterplate planted with 100 μL of abovementioned cell lines in a concentration of 30000 cells/mL. After an incubation of 2 days, the supernatants were washed, followed by adding MTT reagents. After 4 hrs, absorbance at 580 nm was recorded according to the usual protocol.

[2] = system: C26 (solid murine colon carcinoma); assay: Cytotoxicity by MTT assay, C26 cells; conditions: Mus musculus, 48 h, incubation of 2 days, read-out: IC50 values, inhibition of growth of cells
Description: as §1, §2

[3] = system: Tramp C1 (transgenic adenocarcinoma of the mouse prostate); assay: Cytotoxicity by MTT assay, TRAMP C-1 cells; conditions: for IC50: Mus musculus, TRAMP-C1, 48 h, TRAMP C-1 cells, MTT, incubation of 2 days, read-out: IC50 values, inhibition of growth of cells
Description: as §1, §2

[4] = system: MCF7 (solid human estrogen receptor positive breast carcinoma); assay: Cytotoxicity by MTT assay, MCF7 cells; conditions: 48 h, incubation of 2 days, read-out: IC50 values, inhibition of growth of cells
Description: as §1, §2

O=C(O)CCC(=O)c1ccc(-c2ccccc2)cc1 [Fenbufen, 4-(biphenyl-4-yl)-4-oxobutanoic acid, reference compound]
IC50 [1]: > 100 µM
IC50 [2]: > 100 µM
IC50 [3]: > 100 µM

Cc1ccc(C)c(OCCCC(C)(C)C(=O)NCCCCNC(=O)CCC(=O)c2ccc(-c3ccccc3)cc2)c1 [compound 12, N-(4-(4-(biphenyl-4-yl)-4-oxobutanamido)butyl)-5-(2,5-dimethylphenoxy)-2,2-dimethylpentanamide]
IC50 [1]: 9 µM
IC50 [4]: 2 µM
IC50 [2]: 15 µM
IC50 [3]: 21 µM

CCCCC(CC)C(=O)NCCCCNC(=O)CCC(=O)c1ccc(-c2ccccc2)cc1 (stereo not shown) [compound 13, N-(4-(4-(biphenyl-4-yl)-4-oxobutanamido)butyl)-2-ethylhexanamide]
IC50 [1]: 17 µM
IC50 [4]: < 1 µM
IC50 [2]: 15 µM
IC50 [3]: 18 µM

C=C(CC)C(=O)c1ccc(OCC(=O)NCCCCNC(=O)CCC(=O)c2ccc(-c3ccccc3)cc2)c(Cl)c1Cl [compound 14, 4-(biphenyl-4-yl)-N-(4-(2-(2,3-dichloro-4-(2-methylenebutanoyl)phenoxy)acetamido)butyl)-4-oxobutanamide]
IC50 [1]: 19 µM
IC50 [4]: 5 µM
IC50 [2]: 35 µM
IC50 [3]: > 100 µM
cytotoxicity against Tramp C-1 cell ([3]; Tramp C-1 cell, result in words): void of cytotoxicity
